Laboratory results as given in patent publication US20260234157A1, “COMPOUND AND METHOD FOR TARGETED DEGRADATION OF ANDROGEN RECEPTOR” (Gan & Lee Pharmaceuticals Co., Ltd., priority 2023, published 2026).
Positions count from the first letter of the chain named. pIC50: −log10 of the molar value. Like-named read-outs stand apart in the source and are kept apart here.

Legend:
Format in all cases: cell-based
AR protein [1] = target: T1, AR protein (Homo sapiens, UniProt P10275, T878A); assay: Degradation of AR protein in LNCaP cells (Western blot); conditions: for inhibition at 0.01 µM: read-out: Degradation rates of the AR protein in LNCaP cells, 10 nM (%); for inhibition at 0.1 µM: read-out: Degradation rates of the AR protein in LNCaP cells, 100 nM (%)
T1 construct: degradation activity of the compounds disclosed in the present disclosure on AR protein in LNCaP cells; host or cells: LNCaP FGC
T1 sequence (P10275 1-920 T878A): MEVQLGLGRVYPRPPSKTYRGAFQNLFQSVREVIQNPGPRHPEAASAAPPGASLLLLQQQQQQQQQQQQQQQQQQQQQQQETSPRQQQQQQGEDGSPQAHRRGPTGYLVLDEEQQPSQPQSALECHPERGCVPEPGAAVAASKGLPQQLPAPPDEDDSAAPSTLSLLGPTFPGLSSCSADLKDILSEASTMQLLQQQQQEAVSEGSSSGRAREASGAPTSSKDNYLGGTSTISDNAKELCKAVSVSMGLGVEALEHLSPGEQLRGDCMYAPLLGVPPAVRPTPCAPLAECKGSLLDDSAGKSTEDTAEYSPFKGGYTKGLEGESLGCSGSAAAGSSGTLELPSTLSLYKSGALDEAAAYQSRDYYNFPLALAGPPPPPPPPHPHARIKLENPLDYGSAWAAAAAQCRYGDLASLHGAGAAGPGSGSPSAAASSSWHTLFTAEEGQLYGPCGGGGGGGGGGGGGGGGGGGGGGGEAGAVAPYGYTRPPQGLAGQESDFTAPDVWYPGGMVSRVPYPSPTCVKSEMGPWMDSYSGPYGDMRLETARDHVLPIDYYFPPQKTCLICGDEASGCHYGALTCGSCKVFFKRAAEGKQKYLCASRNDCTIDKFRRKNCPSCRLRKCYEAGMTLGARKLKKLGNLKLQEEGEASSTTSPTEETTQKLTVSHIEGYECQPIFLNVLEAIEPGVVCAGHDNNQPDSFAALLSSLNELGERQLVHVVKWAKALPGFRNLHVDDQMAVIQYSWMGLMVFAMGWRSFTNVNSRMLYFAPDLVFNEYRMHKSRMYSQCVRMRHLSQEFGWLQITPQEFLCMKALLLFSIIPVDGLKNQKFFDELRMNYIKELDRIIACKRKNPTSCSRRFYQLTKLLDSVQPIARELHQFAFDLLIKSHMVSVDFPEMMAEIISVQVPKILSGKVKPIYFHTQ
Procedure, shortened: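 Percent AR degradation was derived from GAPDH-normalised Western blot band intensities (infrared detection) in LNCaP lysates.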

AR protein [2] = target: T2, AR protein (Homo sapiens, UniProt P10275); assay: Degradation of AR protein in VCaP cells (Western blot); conditions: 8 hours; for inhibition at 0.01 µM: compound at 10 nM, read-out: Degradation rate of the AR protein in VCaP cells, 10 nM (%); for inhibition at 0.1 µM: compound at 100 nM, read-out: Degradation rate of the AR protein in VCaP cells, 100 nM (%)
T2 construct: degradation activity of the compounds disclosed in the present disclosure on AR protein in VCaP cells; host or cells: VCaP
T2 sequence (P10275 1-920): T1 sequence (P10275 1-920 T878A) with A878T
Procedure, shortened: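 Western blot readout: AR band grayscale normalised to GAPDH, used to derive degradation rate. Lysates came from VCaP cells exposed to compound for 8 h, with solvent controls run in parallel.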

LNCaP FGC cells = assay: Inhibition of proliferation of LNCaP cells (WST-8); conditions: Homo sapiens, LNCaP, 96 h
Experimental: The cells were cultured in a cell culture incubator with 5% CO2 at 37° C. overnight. […] On the sixth day, 96 well plates were taken out, and 20 μL of WST-8 (Beytime, C0040) reagent was added to each well.

VCaP cells = assay: Inhibition of proliferation of VCaP cells (WST-8); conditions: Homo sapiens, read-out: IC50 for inhibiting the proliferation of VCaP cells
Procedure, shortened: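 Proliferation was read by WST-8 on day nine. Cells were VCaP FGC, seeded at 15000 cells per well in 10% FBS DMEM and kept at 37° C with 5% CO2.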

[3] = LNCaP cells, compound 10 nM, 8 hours, Western blot grayscale, GAPDH internal reference
[4] = LNCaP cells, compound 100 nM, 8 hours, Western blot grayscale, GAPDH internal reference
[5] = LNCaP FGC cells, 96 hours, WST-8 absorbance at 450 nm, read-out: IC50 for inhibiting the proliferation of LNCaP cells
[6] = VCaP cells, 168 hours, WST-8 absorbance at 450 nm
[7] = read-out: IC50 for inhibiting the proliferation of LNCaP cells, LNCaP FGC cells, 96 hours, WST-8 absorbance at 450 nm

Row | Structure (SMILES) | inhibition at 0.01 µM (AR protein [1]; [3]) [%] | inhibition at 0.1 µM (AR protein [1]; [4]) [%] | inhibition at 0.01 µM (AR protein [2]) [%] | inhibition at 0.1 µM (AR protein [2]) [%] | pIC50 (LNCaP FGC cells; [5]) | pIC50 (VCaP cells; [6]) | inhibition at 0.01 µM (AR protein [1]; LNCaP, 8 h) [%] | inhibition at 0.1 µM (AR protein [1]; LNCaP, 8 h) [%] | pIC50 (LNCaP FGC cells; [7]) | pIC50 (VCaP cells; VCaP, 168 h)
1 | N#Cc1ccc(O[C@H]2CC[C@H](NC(=O)c3ccc(N4CCC5(CCC(N6CCC7(CCc8cc9c(cc8O7)C(=O)N(C7CCC(=O)NC7=O)C9=O)CC6)CC5)CC4)nn3)CC2)cc1Cl (stereo partly drawn) [Compound 30] | 28 | 62 | 39 | 64 | 5.72 | 6.07 | – | – | – | –
2 | N#Cc1ccc(O[C@H]2CC[C@H](NC(=O)c3ccc(N4CC5(CC(N6CCC7(CCc8cc9c(cc8O7)C(=O)N(C7CCC(=O)NC7=O)C9=O)CC6)C5)C4)nn3)CC2)cc1Cl (stereo partly drawn) [Compound 32] | 22 | 53 | 58 | 64 | 5.44 | 6.28 | – | – | – | –
3 | N#Cc1ccc(O[C@H]2CC[C@H](NC(=O)c3ccc(N4CC5(CCC(N6CCC7(CCc8cc9c(cc8O7)C(=O)N(C7CCC(=O)NC7=O)C9=O)CC6)CC5)C4)nn3)CC2)cc1Cl (stereo partly drawn) [Compound 33] | 27 | 61 | 49 | 52 | 5.66 | 5.77 | – | – | – | –
4 | N#Cc1ccc(O[C@H]2CC[C@H](NC(=O)c3ccc(N4CCC5(CCC(N6CCC7(CCc8cc9c(cc8O7)C(=O)N(C7CCC(=O)NC7=O)C9=O)CC6)CC5)C4)nn3)CC2)cc1Cl (stereo partly drawn) [Compound 34] | 57 | 70 | 39 | 51 | 5.95 | 5.38 | – | – | – | –
5 | N#Cc1ccc(O[C@H]2CC[C@H](NC(=O)c3ccc(N4CCC5(CC(N6CCC7(CCc8cc9c(cc8O7)C(=O)N(C7CCC(=O)NC7=O)C9=O)CC6)C5)C4)nn3)CC2)cc1Cl (stereo partly drawn) [Compound 35] | 17 | 50 | 47 | 58 | 6.10 | 6.30 | – | – | – | –
6 | N#Cc1ccc(O[C@H]2CC[C@H](NC(=O)c3ccc(N4CCC5(CC4)CC(F)(F)c4cc6c(cc4O5)C(=O)N(C4CCC(=O)NC4=O)C6=O)nn3)CC2)cc1Cl (stereo partly drawn) [Compound 36] | 18 | 22 | 17 | 19 | 5.49 | 5.15 | – | – | – | –
7 | N#Cc1ccc(O[C@H]2CC[C@H](NC(=O)c3ccc(N4CCC(CN5CCC6(CCc7cc8c(cc7O6)C(=O)N(C6CCC(=O)NC6=O)C8)CC5)CC4)nn3)CC2)cc1Cl (stereo partly drawn) [Compound 44] | 85 | 84 | 79 | 83 | 5.94 | 8.60 | – | – | – | –
8 | N#Cc1ccc(O[C@H]2CC[C@H](NC(=O)c3ccc(N4CCC(N5CCC6(CC5)COc5cc7c(cc56)C(=O)N(C5CCC(=O)NC5=O)C7=O)CC4)nn3)CC2)cc1Cl (stereo partly drawn) [Compound 48] | – | – | 69 | 82 | – | – | 73 | 91 | 5.78 | 6.74
9 | N#Cc1ccc(O[C@H]2CC[C@H](NC(=O)c3ccc(N4CC(N5CCC6(CC5)COc5cc7c(cc56)C(=O)N(C5CCC(=O)NC5=O)C7=O)C4)nn3)CC2)cc1Cl (stereo partly drawn) [Compound 49] | – | – | 24 | 61 | – | – | 24 | 36 | 5.55 | 5.40
10 | N#Cc1ccc(O[C@H]2CC[C@H](NC(=O)c3ccc(N4CC5(CC(N6CCC7(CC6)COc6cc8c(cc67)C(=O)N(C6CCC(=O)NC6=O)C8=O)C5)C4)nn3)CC2)cc1Cl (stereo partly drawn) [Compound 50] | 66 | 86 | 77 | 88 | 5.92 | 7.55 | – | – | – | –
11 | N#Cc1ccc(O[C@H]2CC[C@H](NC(=O)c3ccc(N4CCC5(CCC(N6CCC7(CC6)COc6cc8c(cc67)C(=O)N(C6CCC(=O)NC6=O)C8=O)CC5)CC4)nn3)CC2)cc1Cl (stereo partly drawn) [Compound 51] | 13 | 49 | 83 | 90 | 6.40 | 7.74 | – | – | – | –
12 | N#Cc1ccc(O[C@H]2CC[C@H](NC(=O)c3ccc(N4CCC5(CC4)COc4cc6c(cc45)C(=O)N(C4CCC(=O)NC4=O)C6=O)nn3)CC2)cc1Cl (stereo partly drawn) [Compound 52] | 43 | 22 | 16 | 26 | 5.35 | 5.17 | – | – | – | –
13 | N#Cc1ccc(O[C@H]2CC[C@H](NC(=O)c3ccc(N4CC5(CCC(N6CCC7(CC6)COc6cc8c(cc67)C(=O)N(C6CCC(=O)NC6=O)C8=O)CC5)C4)nn3)CC2)cc1Cl (stereo partly drawn) [Compound 53] | 69 | 85 | 62 | 71 | 6.42 | 7.37 | – | – | – | –
14 | N#Cc1ccc(O[C@H]2CC[C@H](NC(=O)c3ccc(N4CCC5(CC(N6CCC7(CC6)COc6cc8c(cc67)C(=O)N(C6CCC(=O)NC6=O)C8=O)C5)C4)nn3)CC2)cc1Cl (stereo partly drawn) [Compound 54] | 24 | 76 | 75 | 85 | 5.77 | 7.33 | – | – | – | –
15 | N#Cc1ccc(O[C@H]2CC[C@H](NC(=O)c3ccc(N4CC(CN5CCC6(CC5)COc5cc7c(cc56)C(=O)N(C5CCC(=O)NC5=O)C7=O)C4)nn3)CC2)cc1Cl (stereo partly drawn) [Compound 55] | 44 | 69 | 77 | 80 | 6.00 | 7.08 | – | – | – | –
